# In article PMC8405639, “2-Carba-lysophosphatidic acid is a novel β-lysophosphatidic acid analogue with high potential for lysophosphatidic acid receptor activation and autotaxin inhibition” (Scientific Reports, 2021):
# How the values were obtained:
# [1] = 2carbaLPA detection in rat plasma after oral 2ccPA capsule; format: in vivo; conditions: oral gastro-resistant (entero-soluble) capsule of 2ccPA, 0-10 h
# Text: Supplementary Figure S5. 2-carba-lysophosphatidic acid (2carbaLPA) produced in rat plasma from rats administered 2-carba-cyclic phosphatidic acid (2ccPA) as a gastro-resistant capsule. Rats were orally administered with 2ccPA containing capsule and 2carbaLPA produced in plasma was detected using liquid chromatography with tandem mass spectrometry (LC-QqQ) and presented as peak area (counts). Data are represented as mean ± standard deviation (n = 5 rat samples).
# Preparation of 2ccPA intended to be administered as a gastro-resistant capsule, administration of the prepared 2ccPA in rats, and extraction of lipids from plasma samples were performed as per previously described methods^1. The experimental protocols were approved by the Animal Research Committee of the Saitama Medical University (approval number; 2113). Briefly, each capsule was filled with 19.70 ± 1.39 mg of 2ccPA and enteric-coated. Male 7-week-old Sprague Dawley rats were orally administrated with a single capsule and blood was collected from the jugular vein using a catheter from 0 to 10 h. Plasma was obtained by mixing with EDTA-Na2 (1 mg/mL), and the lipid fraction was extracted by adding acidic methanol, including LPA 17:0 (final concentration: 100 nM; Avanti Polar Lipids) as internal standard. Analysis for detection of 2carbaLPA with LC-QqQ was performed as above.
# hLPA1 = target: T1, hLPA1 (Homo sapiens, UniProt Q92633); assay: TGFα-shedding assay, LPA1; format: cell-based; conditions: 293A cells, AP-TGFα release; for EC50: 1 h; for Emax: read-out: Emax ± SEM hLPA1 (converted)
# T1 construct: expressed in transfected cells; host or cells: 293A cells
# Description: (§1) Figure 4 Agonistic activity of 2-carba-lysophosphatidic acid (2carbaLPA) and cyclic phosphatidic acid (cPA) analogues toward six lysophosphatidic acid (LPA) receptors. 293A cells expressing LPA receptors were stimulated with the indicated concentration of LPA, 2carbaLPA, and cPA analogues. Receptor-specific alkaline phosphatase-tagged transforming growth factor-α release was calculated by subtracting the responses in the empty vector-transfected cells from those in the receptor-expressing cells. Data are represented as standard error of the mean of three independent replicates.
# (§2) 293A cells (Life Technologies, Tokyo, Japan) were cultured in DMEM (Nissui Pharmaceutical, Tokyo, Japan) supplemented with 10% foetal calf serum (Gibco, Waltham, MA, USA) in an incubator at 37 °C and 5% CO2. This assay was conducted according to a modified version of a method described previously. To improve signal detection, cells for the analysis of LPA1, LPA2, LPA4, and LPA5 were transfected with Gα-chimeric proteins, whereas those for LPA4, LPA5, LPA6 analysis were treated with the LPA1–3 antagonist Ki16425. The cells were co-transfected with vectors-expressing human LPA1–6, alkaline phosphatase-tagged TGFα (AP-TGFα). As negative controls, cells transfected with an empty vector instead of the receptor-expressing vector were used. After 24 h, the cells were resuspended in Hank’s balanced salt solution (HBSS), seeded in 96-well plates, and stimulated with cPA analogues administered at tenfold concentration of the final concentration. The cPA analogues were diluted with HBSS, 0.01% protease and fatty acid-free BSA (SERVA Electrophoresis GmbH, Heidelberg, Germany). Cells for LPA4, LPA5, and LPA6 analysis were treated with Ki16425 (final concentration: 10 μM), 5 min before treatment with the cPA analogues. After incubation for 1 h at 37 °C, 80 µL of the supernatant was transferred to fresh 96-well plates. An equal volume of 1 mM p-NPP solution [120 mM Tris–HCl (pH 9.5), 40 mM NaCl, and 10 mM MgCl2] was added to both the supernatant and the cells. Alkaline phosphatase activity was calculated by measuring absorbance at 405 nm using the Cytation 3 plate reader (BioTek, Winooski, VT, USA).
# hLPA4 = target: T2, hLPA4 (Homo sapiens, UniProt Q99677); assay: TGFα-shedding assay, LPA4; format: cell-based; conditions: 293A cells, AP-TGFα release; for EC50: 1 h, with Ki16425 10 μM; for Emax: read-out: Emax ± SEM hLPA4 (converted)
# T2 construct: expressed in transfected cells; host or cells: 293A cells
# Description: as §1, with “293A” for “Figure 4 Agonistic activity of 2-carba-lysophosphatidic acid (2carbaLPA) and cyclic phosphatidic acid (cPA) analogues toward six lysophosphatidic acid (LPA) receptors. 293A”
# as §2, with “To improve signal detection, cells for the analysis of LPA1, LPA2, LPA4, and LPA5 were transfected with Gα-chimeric proteins, whereas those for LPA4, LPA5, LPA6 analysis were treated with the LPA1–3 antagonist Ki16425.” left out
# [2] = set-up: method as in PMID 32298781; conditions: acidic conditions ref 16; cited from earlier work
# T1 sequence (Q92633 whole entry): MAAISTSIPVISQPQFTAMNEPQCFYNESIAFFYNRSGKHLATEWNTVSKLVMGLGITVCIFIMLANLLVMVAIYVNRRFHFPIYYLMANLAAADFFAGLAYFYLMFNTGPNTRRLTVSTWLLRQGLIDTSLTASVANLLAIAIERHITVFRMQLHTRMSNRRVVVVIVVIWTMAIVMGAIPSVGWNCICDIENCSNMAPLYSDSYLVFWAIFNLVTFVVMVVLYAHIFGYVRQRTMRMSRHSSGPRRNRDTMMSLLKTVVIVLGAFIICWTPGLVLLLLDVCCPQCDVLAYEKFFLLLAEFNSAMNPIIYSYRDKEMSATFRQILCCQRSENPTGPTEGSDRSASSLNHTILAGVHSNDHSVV
# T2 sequence (Q99677 whole entry): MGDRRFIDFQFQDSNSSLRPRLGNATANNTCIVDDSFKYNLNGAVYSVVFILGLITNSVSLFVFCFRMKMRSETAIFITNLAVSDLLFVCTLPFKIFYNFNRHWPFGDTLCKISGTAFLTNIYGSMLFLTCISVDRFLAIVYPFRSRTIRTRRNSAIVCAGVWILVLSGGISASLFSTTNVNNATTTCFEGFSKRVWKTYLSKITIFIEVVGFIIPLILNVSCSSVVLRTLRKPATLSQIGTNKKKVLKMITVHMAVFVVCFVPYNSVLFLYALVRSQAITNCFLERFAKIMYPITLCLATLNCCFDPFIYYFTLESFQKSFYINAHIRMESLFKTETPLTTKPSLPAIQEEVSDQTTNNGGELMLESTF
Compound,2carbaLPA in plasma after administration of 2ccPA [1],EC50 (hLPA1),Emax (hLPA1),EC50 (hLPA4),Emax (hLPA4),Degradation under acidic conditions [2]
"CCCCCCCC/C=C\CCCCCCCC(=O)OCC(CO)CP(=O)(O)O (stereo not shown) [2carbaLPA 18:1, 2-carba-lysophosphatidic acid]",detectable,54.8 nM,27%,1 nM,24.9%,
"CCCCCCCC/C=C\CCCCCCCC(=O)OCC1COP(=O)(O)C1 (stereo not shown) [2ccPA 18:1, 2-carba-cyclic phosphatidic acid]",,997 nM,20.6%,71.9 nM,19.6%,degraded under acidic conditions
"CCCCCCCC/C=C\CCCCCCCC(=O)OC[C@@H](O)CCP(=O)(O)O [3carba LPA 18:1, 3-carba-lysophosphatidic acid]",,11 nM,26.9%,1.9 nM,23.5%,

# The next lines start with results.
2carbaLPA in plasma after administration of 2ccPA [1],EC50 (hLPA1),Emax (hLPA1),EC50 (hLPA4),Emax (hLPA4),Compound,Degradation under acidic conditions [2]
,370 nM,26.9%,92.3 nM,23.3%,"CCCCCCCC/C=C\CCCCCCCC(=O)OC[C@@H]1CCP(=O)(O)O1 [3ccPA 18:1, 3-carba-cyclic phosphatidic acid]",
,460 nM,24.1%,32.8 nM,17.2%,"CCCCCCCC/C=C\CCCCCCCC(=O)OC[C@@H]1COP(=O)(O)O1 [cPA 18:1, 1-Oleoyl-cPA]",
